Data as given in article PMC9649909, “Wnt-pathway inhibitors with selective activity against triple-negative breast cancer: From thienopyrimidine to quinazoline inhibitors” (Frontiers in Pharmacology, 2022).
Like-named read-outs stand apart in the source and are kept apart here.

Experiments:
BT-20 TNBC cell line = assay: MTT survival assay BT-20; assay type: cell-based; settings: Homo sapiens, BT-20; Table S2; read-out: MTT BT-20 IC50
Method: (§1) Indicated TNBC cell lines were detached and resuspended at 120,000 cells/ml and added into each well of a transparent 384-well plate in the final volume of 20 µl/well. The cells were maintained in DMEM containing 10% FBS at 37°C, 5% CO2 overnight. Next day, the medium in each well was replaced by 40 μl of the fresh one containing the indicated concentrations of compounds. In case of drug combination experiments, each compound dilution was delivered in corresponding well in 20 μl of medium. […] After incubation for 3–4 days, depending on the cell line, the medium in each well was replaced by 25 μl of 0.5 mg/ml Thiazolyl blue solution in 1xPBS following by incubation for 3 h at 37°C. Then the solution was removed and 25 μl DMSO was added into each well. Absorbance at 510 nm was measured in a Tecan Infinite M200 PRO plate reader.

HCC1395 TNBC cell line = assay: MTT survival assay HCC1395; assay type: cell-based; settings: Homo sapiens, HCC1395; Table S2; read-out: MTT HCC-1395 IC50
Method: as §1

[1] = test system: MDA-MB-468 TNBC cell line; assay: MTT survival assay MDA-MB-468; assay type: cell-based; settings: Homo sapiens, MDA-MB-468; Table S2
Method: as §1

[2] = test system: MDA-MB-231 TNBC cell line; assay: MTT survival assay MDA-MB-231; assay type: cell-based; settings: for IC50: Homo sapiens
Method: as §1

[3] = test system: non-cancerous breast epithelial cell line MCF10a; assay: MTT survival assay MCF10a; assay type: cell-based; settings: for IC50: Homo sapiens, MCF-10A
Method: as §1

[4] = test system: β-catenin-dependent Wnt-pathway; assay: TopFlash luciferase reporter assay, CHIR99021-stimulated, HCC1395; assay type: cell-based; settings: for HCC1395 TopFlash Efficacy / Emax / IC50: stimulation with CHIR99021 (GSK3β inhibitor); for Emax / IC50: Homo sapiens; for Emax: read-out: HCC1395 TopFlash Efficacy; for IC50: read-out: HCC1395 TopFlash IC50; for fold improvement in the activity compared to 4a: TopFlash IC50 vs 4a
From the text: Both stimulations abolish formation of the destruction complex, a multiprotein complex consisting of Axin, adenomatous polyposis coli (APC), glycogen synthase kinase three beta (GSK3β), and casein kinase one alpha (CK1α). Upon inactivation of the complex, β-catenin accumulates in the cytoplasm and translocates into the nucleus where it interacts with transcription factors. These downstream events are quantified by a Luciferase transcription-based readout assay (TopFlash assay).

in vitro = settings: human
Method: The simplicity of the scaffold combined with synthetic accessibility allows building a library of compounds and performing structure activity relationship (SAR) studies of the three main parts of the molecule: the top part, the linker and the core (Figure 2).
The synthesized compounds were used to explore SAR of three defined areas of investigation (Figure 2). All compounds were tested in the HCC1395 TNBC cell line using the GSK3β inhibitor to induce β-catenin signaling since 4a acted downstream of GSK3β (Figure 2). Both inhibition of β-catenin signaling measured by the TopFlash reporter and cytotoxicity measured by the Renilla reporter were assessed.
The Wnt3a or CHIR99021-stimulated luciferase activity in HCC1395 TNBC cell line stably transfected with the TopFlash reporter was analyzed essentially as described for the BT-20 TNBC cell line ([Shaw et al., 2019b]; [Koval et al., 2021]). Reporter cells were seeded at 10,000 cells/well in a white opaque 384-well plate in the final volume of 20 μl of DMEM medium supplemented with 10% FCS. The cells were maintained incubated at 37°C, 5% CO2 overnight for attachment. Subsequently, they were transfected by a plasmid encoding constitutively expressed Renilla luciferase under the CMV promoter overall as described in the manufacturer’s protocol using 12 μg/ml of DNA and 40 μl/ml XtremeGENE nine reagent. The next day, the medium in each well was replaced with a 10 μl of fresh medium containing compound of interest, and, after 1 h of preincubation with the compounds, additional 10 μl of medium supplemented with Wnt3a [purified as described ([Willert et al., 2003]; [Koval and Katanaev, 2011])] or CHIR99021 were added creating respective final concentrations of 2.5 μg/ml or 5 μM of each. In case of other signal transduction reporters, no additional stimulation was performed. Compound dilutions were prepared by serial dilution in DMSO and diluted with the amount of medium necessary to obtain their final concentrations indicated on the figures and tables and maintain concentration of DMSO of 0.5% in all assay points. After overnight incubation, the supernatant in each well was removed, and the luciferase activity was measured as described ([Dyer et al., 2000]; [Huber et al., 2021]; [Pellissier et al., 2021]). The culture medium was completely removed from all wells of the plate. Finally, the luciferase activity of the firefly and Renilla luciferases was detected sequentially in individual wells of a 384-well plate through injection of corresponding measurement solutions and immediate reading (400 ms integration time) in Infinite M Plex multifunctional plate reader with injection module.

HCC1806 TNBC cell line = assay: MTT survival assay HCC1806; assay type: cell-based; settings: for IC50: Homo sapiens, HCC1806
Method: as §1

[5] = MDA-MB-231, Table S2, read-out: MTT MDA-MB-231 IC50
[6] = Table S2, read-out: MTT MCF10 IC50
[7] = Table S2, read-out: MTT HCC1806 IC50

| Compound | IC50 ([4]; HCC1395, HCC1395) [µM] | IC50 (BT-20 TNBC cell line) [µM] | IC50 (HCC1395 TNBC cell line) [µM] | IC50 [1] [µM] | IC50 [2, 5] [µM] | IC50 [3, 6] [µM] | HCC1395 TopFlash Efficacy ([4]; HCC1395) [%] | Emax ([4]; HCC1395, HCC1395) [%] | fold improvement in the activity compared to 4a [4] [fold] | IC50 (in vitro; HCC1395 Cytotoxicity IC50) [µM] | IC50 (HCC1806 TNBC cell line; [7]) [µM] | MTT HCC1806 Comments (HCC1806 TNBC cell line; Table S2) | MTT MDA-MB-231 Comments ([2]; Table S2) | MTT MDA-MB-231 plateau ([2]; Table S2) | also measured |
| --- | --- | --- | --- | --- | --- | --- | --- | --- | --- | --- | --- | --- | --- | --- | --- |
| COc1ccccc1CNc1ncnc2sccc12 [Compound 4b, N-(2-methoxybenzyl)thieno[2,3-d]pyrimidin-4-amine] | 2.79 ± 0.67 | > 50 | 8.17 | 11.8 | > 50 | 33.2 | 40.7 ± 3.1 | 40.7 | 3 | > 50 | > 50 | Inactive | – | – | IC50 ([2]; MDA-MB-231, Figure 3B heatmap, read-out: IC50, μM (MDA-MB-231)): > 10 µM; IC50 ([3]; Figure 3B heatmap, read-out: IC50, μM (MCF10)): > 10 µM |
| COc1ccc(CNc2ncnc3sccc23)cc1 [Compound 4d, N-(4-methoxybenzyl)thieno[2,3-d]pyrimidin-4-amine] | > 50 | 39.8 | > 50 | 14.2 | > 50 | > 50 | – | – | – | – | 46.5 | – | Inactive | – | TopFlash activity in words ([4]; HCC1395, CHIR99021): abrogated the activity; GSK HCC1395 Comments ([4]; Table S2): Inactive; IC50 (HCC1806 TNBC cell line; Figure 3B heatmap, read-out: IC50, μM (HCC1806)): > 50 µM |
| Clc1ccc(CNc2ncnc3sccc23)cc1 [Compound 4j, N-(4-chlorobenzyl)thieno[2,3-d]pyrimidin-4-amine] | 3.19 ± 1.64 | 6.29 | 1.42 | 3.93 | 45.3 | 20.4 | – | 74.6 ± 12 | 2 | > 50 | 26.2 | – | – | 92.63 | – |
| Cc1cccc(CNc2ncnc3sccc23)c1 [Compound 4n, N-(3-methylbenzyl)thieno[2,3-d]pyrimidin-4-amine] | 3.76 ± 1.9 | 4.72 | 1.05 | 0.48 | > 10 | > 10 | – | 52.9 ± 6.8 | – | > 50 | > 10 | Inactive | Inactive | – | MTT MCF10 Comments ([3]; Table S2): Inactive |
| Cc1ccc(CNc2ncnc3sccc23)cc1 [Compound 4o, N-(4-methylbenzyl)thieno[2,3-d]pyrimidin-4-amine] | 4.61 ± 1.91 | 2.85 | 1.35 | 1.02 | > 10 | 6.18 | – | 72.7 ± 19.5 | 2 | > 50 | 2.71 | – | Inactive | – | – |
| COc1cc(CNc2ncnc3sccc23)ccc1Cl [Compound 4q, N-(4-chloro-3-methoxybenzyl)thieno[2,3-d]pyrimidin-4-amine] | 1.33 ± 0.07 | 0.96 | 0.63 | 0.57 | > 10 | > 10 | – | 68.5 ± 2.9 | – | > 50 | > 10 | Inactive | Inactive | – | MTT MCF10 Comments ([3]; Table S2): Inactive |
| CN(CCc1ccccc1)c1ncnc2sccc12 [Compound 5j, N-methyl-N-phenethylthieno[2,3-d]pyrimidin-4-amine] | 2.04 ± 2.55 | 1.63 | 2.07 | 0.92 | 4.71 | 1.53 | 100 ± 0 | 100 | – | > 50 | 17.2 | – | – | 92.68 | selectivity over the control cells (difference in IC50, MCF10a vs HCC1395) ([3]; MTT IC50 ratio MCF10a / HCC1395): less than 3 fold |
| COc1ccc(CNc2ncnc3ccccc23)cc1 [Compound 9c, N-(4-methoxybenzyl)quinazolin-4-amine] | 4.76 ± 0.23 | 3.81 | 1.17 | 0.44 | > 10 | 7.94 | 81.5 ± 10.61 | 81.5 | – | – | > 10 | Inactive | Inactive | – | IC50 (in vitro): > 50 µM |
| Clc1ccc(CNc2ncnc3ccccc23)cc1 [Compound 9e, N-(4-chloro)quinazolin-4-amine] | – | 9.6 | 0.92 | 2.22 | 26.9 | > 10 | – | – | – | – | 11.4 | – | – | 100 | IC50 ([2]; MDA-MB-231, read-out: IC50, μM (MDA-MB-231)): > 10 µM; Emax ([4]; HCC1395): 96 ± 5.7%; IC50 ([4]; HCC1395): 2.18 ± 0.85 µM; IC50 (in vitro): > 50 µM |
